Reference: ChEMBL document CHEMBL4219026, “A Cereblon Modulator (CC-220) with Improved Degradation of Ikaros and Aiolos” (J Med Chem, 2018)
Active and inactive are the calls of the source. The rule behind the calls is not given here.

Legend:
[1] = target: Cereblon/Casein kinase I alpha (Homo sapiens) (UniProt P48729+Q96SW2); experiment: Induction of cereblon-mediated CK1alpha (unknown origin) degradation in at 0.0005 to 10 uM after 4 hrs by cell-based chemiluminescent assay
[2] = target: Protein cereblon/Eukaryotic peptide chain release factor GTP-binding subunit ERF3A (Homo sapiens) (UniProt Q96SW2+P15170); experiment: Induction of cereblon-mediated GSPT1 degradation in human DF15 cells expressing ePL-tagged GSPT1 at 0.0005 to 10 uM after 4 hrs by luminometric analysis; type: cell-based
Chain of Protein cereblon/Eukaryotic peptide chain release factor GTP-binding subunit ERF3A (Homo sapiens) (P15170 whole entry, looked up): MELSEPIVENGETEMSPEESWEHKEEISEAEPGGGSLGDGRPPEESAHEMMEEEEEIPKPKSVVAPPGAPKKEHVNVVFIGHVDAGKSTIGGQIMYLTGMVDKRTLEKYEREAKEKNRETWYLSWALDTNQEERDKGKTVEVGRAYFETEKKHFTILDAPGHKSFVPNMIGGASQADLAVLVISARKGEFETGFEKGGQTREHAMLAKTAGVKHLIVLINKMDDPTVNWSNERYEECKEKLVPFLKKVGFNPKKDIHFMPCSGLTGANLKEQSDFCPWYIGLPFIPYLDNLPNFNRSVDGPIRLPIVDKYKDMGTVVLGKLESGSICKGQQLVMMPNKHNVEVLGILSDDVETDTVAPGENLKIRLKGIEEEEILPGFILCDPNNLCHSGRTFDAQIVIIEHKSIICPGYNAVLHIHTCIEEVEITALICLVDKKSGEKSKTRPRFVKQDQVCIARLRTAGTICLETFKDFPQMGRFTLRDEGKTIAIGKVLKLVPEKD
Chain of Protein cereblon/Eukaryotic peptide chain release factor GTP-binding subunit ERF3A (Homo sapiens) (Q96SW2 whole entry, looked up): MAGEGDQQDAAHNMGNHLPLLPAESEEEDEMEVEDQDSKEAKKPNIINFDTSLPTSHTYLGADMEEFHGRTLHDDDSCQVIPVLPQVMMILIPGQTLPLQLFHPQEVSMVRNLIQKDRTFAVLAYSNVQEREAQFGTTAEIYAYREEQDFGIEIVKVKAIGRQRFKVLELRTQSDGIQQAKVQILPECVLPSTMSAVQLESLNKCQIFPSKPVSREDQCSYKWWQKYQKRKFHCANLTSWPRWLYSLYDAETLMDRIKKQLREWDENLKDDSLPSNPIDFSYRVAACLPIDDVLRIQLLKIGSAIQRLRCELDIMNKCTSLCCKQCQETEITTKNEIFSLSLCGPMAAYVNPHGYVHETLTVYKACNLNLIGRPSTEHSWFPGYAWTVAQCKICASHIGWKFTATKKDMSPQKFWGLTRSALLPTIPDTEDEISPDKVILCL

Chain of Cereblon/Casein kinase I alpha (Homo sapiens) (P48729 2-337 limits assumed): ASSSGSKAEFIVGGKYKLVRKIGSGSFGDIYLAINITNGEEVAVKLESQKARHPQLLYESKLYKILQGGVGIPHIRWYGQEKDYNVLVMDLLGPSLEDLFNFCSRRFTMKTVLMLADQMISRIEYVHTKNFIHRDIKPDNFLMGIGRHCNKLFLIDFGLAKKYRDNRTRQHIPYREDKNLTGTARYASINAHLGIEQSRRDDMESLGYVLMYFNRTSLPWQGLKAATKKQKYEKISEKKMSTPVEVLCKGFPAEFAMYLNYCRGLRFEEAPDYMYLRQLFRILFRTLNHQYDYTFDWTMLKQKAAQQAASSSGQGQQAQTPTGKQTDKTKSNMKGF
Chain of Cereblon/Casein kinase I alpha (Homo sapiens) (Q96SW2 whole entry partner): as the sequence (Q96SW2 whole entry, looked up) above

Activity [1]: inactive
Activity [2]: inactive
Compound: O=C1CC[C@H](N2Cc3c(OCc4ccc(CN5CCOCC5)cc4)cccc3C2=O)C(=O)N1
